The results in this text go back to patent US10351540B2, “1,2-dithiolane and dithiol compounds useful in treating mutant EGFR-mediated diseases and conditions” (Sabila Biosciences LLC, priority 2017, dated 2019).

In one test the target is T1, EGFR (L858R) (Homo sapiens, UniProt P00533, L858R).
T1 construct: made in house; host or cells: cell-free translation in rabbit reticulocyte lysate
T1 sequence (P00533 25-1210 L858R): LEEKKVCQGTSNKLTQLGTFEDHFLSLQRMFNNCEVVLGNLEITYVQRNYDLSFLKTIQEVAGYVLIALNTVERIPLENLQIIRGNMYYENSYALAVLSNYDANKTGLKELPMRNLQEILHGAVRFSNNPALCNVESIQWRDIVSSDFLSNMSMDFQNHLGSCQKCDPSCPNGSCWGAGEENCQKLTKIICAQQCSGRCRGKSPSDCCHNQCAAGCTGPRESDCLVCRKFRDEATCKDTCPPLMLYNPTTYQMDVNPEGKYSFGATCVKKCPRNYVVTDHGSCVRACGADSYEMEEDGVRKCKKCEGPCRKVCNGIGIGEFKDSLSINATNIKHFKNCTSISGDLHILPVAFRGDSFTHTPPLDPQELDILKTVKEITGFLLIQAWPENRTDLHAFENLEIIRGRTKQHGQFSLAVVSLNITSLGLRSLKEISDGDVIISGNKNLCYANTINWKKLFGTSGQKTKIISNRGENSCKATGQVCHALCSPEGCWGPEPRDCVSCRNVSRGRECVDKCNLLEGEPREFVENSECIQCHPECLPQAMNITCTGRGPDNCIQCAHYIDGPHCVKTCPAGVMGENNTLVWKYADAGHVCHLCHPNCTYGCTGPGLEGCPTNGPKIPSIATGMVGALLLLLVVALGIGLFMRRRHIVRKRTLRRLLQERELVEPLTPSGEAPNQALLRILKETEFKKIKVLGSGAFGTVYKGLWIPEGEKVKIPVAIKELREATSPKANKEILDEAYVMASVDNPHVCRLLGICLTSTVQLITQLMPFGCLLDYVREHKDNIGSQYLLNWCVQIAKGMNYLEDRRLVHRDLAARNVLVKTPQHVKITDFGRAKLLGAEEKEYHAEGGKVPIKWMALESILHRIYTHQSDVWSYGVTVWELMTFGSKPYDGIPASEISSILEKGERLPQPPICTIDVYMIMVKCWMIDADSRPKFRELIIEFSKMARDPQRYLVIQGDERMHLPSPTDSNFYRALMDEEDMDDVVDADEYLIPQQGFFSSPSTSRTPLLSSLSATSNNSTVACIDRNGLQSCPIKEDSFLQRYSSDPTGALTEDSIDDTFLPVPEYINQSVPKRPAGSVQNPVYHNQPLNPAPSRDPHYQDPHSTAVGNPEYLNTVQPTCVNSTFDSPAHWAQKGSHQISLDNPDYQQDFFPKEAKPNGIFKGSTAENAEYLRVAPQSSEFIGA
The experiment in a line: KinaseSeeker competition binding assay, rabbit reticulocyte lysate (Method A). The conditions noted are these: 7-point curve, duplicate. As to the method: Method A: Rabbit Reticulocyte Lysate Assay Design: KinaseSeeker is a homogeneous competition binding assay where the displacement of an active site dependent probe by an inhibitor is measured by a change in luminescence signal. Luminescence readout translates into a highly sensitive and robust assay with low background and minimal interference from test compounds.
10 mM stock solutions of test compounds were serially diluted in DMSO to make assay stocks. Prior to initiating IC50 determinations, the test compounds were evaluated for false positive against split-luciferase.
Each test compound was screened in duplicate against target kinase i.e. EGFR (L858R) at 7 different concentrations. For kinase assays, Cfluc-kinase was translated along with Fos-Nfluc using a cell-free system (rabbit reticulocyte lysate) at 30° C. for 90 min. […] 80 uL of luciferin assay reagent was added to each solution and luminescence was immediately measured on a luminometer.
The % Inhibition and % Activity Remaining was calculated using the following equation: % Inhibition=[(ALUControl=ALUSample)/ALUControl]×100 % Activity Remaining=100−% Inhibition
The % Activity was plotted against compound concentration and the IC50 was determined for each compound using a 7-point curve (Jester, B. W.; et. al. J. Am. Chem. Soc. 2010, 132, 11727-11735. Jester, B. W.; et. al. J. Med. Chem. 2012, 55, 1526-1537). […]
`CCOc1ncnc(Nc2ccc(OCc3cccc(F)c3)c(Cl)c2)c1NC(=O)CC1CCSS1` (centres unmarked) [Example 20] yielded an IC50 of 1 to 10 µM.
On the same count and under the same terms, the result for `O=C(C[C@@H]1CCSS1)Nc1c(Nc2ccc(OCc3cccc(F)c3)c(Cl)c2)ncnc1OC[C@H](O)CO` [Example 24, N-(4-((3-chloro-4-((3-fluorobenzyl)oxy)phenyl)amino)-6-((R)-2,3-dihydroxypropoxy)pyrimidin-5-yl)-2-((R)-1,2-dithiolan-3-yl)acetamide] reads over 10 µM.

The target of a further test is T2, EGFR T790M (Homo sapiens, UniProt P00533, T790M).
T2 construct: made in house; host or cells: T7 phage in E. coli (BL21-derived) or HEK-293 cells
T2 sequence (P00533 25-1210 T790M): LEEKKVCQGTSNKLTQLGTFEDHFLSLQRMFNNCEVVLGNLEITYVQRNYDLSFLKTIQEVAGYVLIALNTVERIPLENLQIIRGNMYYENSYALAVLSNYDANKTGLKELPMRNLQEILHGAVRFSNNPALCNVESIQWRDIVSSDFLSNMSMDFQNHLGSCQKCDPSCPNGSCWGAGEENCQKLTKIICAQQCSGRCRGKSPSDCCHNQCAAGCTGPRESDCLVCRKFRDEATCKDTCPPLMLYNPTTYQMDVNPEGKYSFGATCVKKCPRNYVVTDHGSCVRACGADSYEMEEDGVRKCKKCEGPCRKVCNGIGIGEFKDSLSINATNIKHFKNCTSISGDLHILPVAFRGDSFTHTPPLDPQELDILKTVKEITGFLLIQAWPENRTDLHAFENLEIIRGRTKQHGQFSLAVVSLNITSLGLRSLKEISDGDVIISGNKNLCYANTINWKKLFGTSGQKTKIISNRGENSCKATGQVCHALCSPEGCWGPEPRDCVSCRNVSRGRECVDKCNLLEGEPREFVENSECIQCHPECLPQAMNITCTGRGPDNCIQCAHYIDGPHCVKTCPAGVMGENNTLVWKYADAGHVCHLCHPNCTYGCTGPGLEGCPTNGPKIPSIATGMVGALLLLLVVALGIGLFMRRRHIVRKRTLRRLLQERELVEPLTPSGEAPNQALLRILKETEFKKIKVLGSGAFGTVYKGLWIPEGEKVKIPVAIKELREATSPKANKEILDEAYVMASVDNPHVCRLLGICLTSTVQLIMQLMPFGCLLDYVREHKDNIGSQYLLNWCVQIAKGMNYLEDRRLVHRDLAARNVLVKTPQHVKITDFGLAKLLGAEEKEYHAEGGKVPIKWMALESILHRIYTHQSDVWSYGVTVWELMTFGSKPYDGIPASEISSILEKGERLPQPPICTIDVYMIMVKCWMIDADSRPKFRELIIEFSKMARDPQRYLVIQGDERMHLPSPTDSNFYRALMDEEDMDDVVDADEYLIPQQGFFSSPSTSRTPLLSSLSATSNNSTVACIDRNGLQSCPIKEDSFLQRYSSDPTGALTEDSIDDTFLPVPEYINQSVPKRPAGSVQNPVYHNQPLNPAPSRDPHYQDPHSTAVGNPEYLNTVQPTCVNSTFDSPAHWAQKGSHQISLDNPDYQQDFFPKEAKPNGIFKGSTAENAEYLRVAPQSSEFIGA
The experiment in a line: KINOMEscan competition binding kinase assay, Kd (Method B). The conditions noted are these: Method B (Kd values).
Method: The assay is performed by combining three components: DNA-tagged kinase; immobilized ligand; and a test compound. The ability of the test compound to compete with the immobilized ligand is measured via quantitative PCR of the DNA tag.
For most assays, kinase-tagged T7 phage strains were prepared in an E. coli host derived from the BL21 strain. E. coli were grown to log-phase and infected with T7 phage and incubated with shaking at 32° C. until lysis. The lysates were centrifuged and filtered to remove cell debris. The remaining kinases were produced in HEK-293 cells and subsequently tagged with DNA for qPCR detection. Streptavidin-coated magnetic beads were treated with biotinylated small molecule ligands for 30 minutes at room temperature to generate affinity resins for kinase assays. The liganded beads were blocked with excess biotin and washed with blocking buffer (SeaBlock (Pierce), 1% BSA, 0.05% Tween 20, 1 mM DTT) to remove unbound ligand and to reduce non-specific binding. […] All reactions were performed in polystyrene 96-well plates in a final volume of 0.135 ml. […] The kinase concentration in the eluates was measured by qPCR.
In the case of `COc1cc(N(C)CCN(C)C)c(NC(=O)C(CSC(C)=O)CSC(C)=O)cc1Nc1nccc(-c2cn(C)c3ccccc23)n1` [Example 28, S,S′-(2-((2-((2-(dimethylamino)ethyl)(methyl)amino)-4-methoxy-5-((4-(1-methyl-1H-indol-3-yl)pyrimidin-2-yl)amino)phenyl)carbamoyl)propane-1,3-diyl)diethanethioate], the Kd lay within 0.1 to 0.999 µM.
Still for that read-out and setting: as for `COc1cc(N(C)CCN(C)C)c(NC(=O)C2CSSC2)cc1Nc1nccc(-c2cn(C)c3ccccc23)n1` [Example 29, N-(2-((2-(dimethylamino)ethyl)(methyl)amino)-4-methoxy-5-((4-(1-methyl-1H-indol-3-yl)pyrimidin-2-yl)amino)phenyl)-1,2-dithiolane-4-carboxamide], the figure is 0.1 to 0.999 µM; as for `COc1cc(N2CCN(C)CC2)ccc1Nc1ncc(Cl)c(Oc2cccc(NC(=O)C(CSC(C)=O)CSC(C)=O)c2)n1` [Example 35, S,S′-(2-((3-((5-chloro-2-((2-methoxy-4-(4-methylpiperazin-1-yl)phenyl)amino)pyrimidin-4-yl)oxy)phenyl)carbamoyl)propane-1,3-diyl)diethanethioate], over 10 µM.
The same measure, in the same setting: as for `COc1cc(N2CCN(C)CC2)ccc1Nc1ncc(Cl)c(Oc2cccc(NC(=O)C3CSSC3)c2)n1` [Example 36, N-(3-((5-chloro-2-((2-methoxy-4-(4-methylpiperazin-1-yl)phenyl)amino)pyrimidin-4-yl)oxy)phenyl)-1,2-dithiolane-4-carboxamide], the figure is 1 to 10 µM; as for `COc1cc(N2CCN(C)CC2)ccc1Nc1ncc(Cl)c(Nc2cccc(NC(=O)C(CSC(C)=O)CSC(C)=O)c2)n1` [Example 40, S,S′-(2-((3-((5-chloro-2-((2-methoxy-4-(4-methylpiperazin-1-yl)phenyl)amino)pyrimidin-4-yl)amino)phenyl)carbamoyl)propane-1,3-diyl)diethanethioate], 0.1 to 0.999 µM; as for `COc1cc(N2CCN(C)CC2)ccc1Nc1ncc(Cl)c(Nc2cccc(NC(=O)C3CSSC3)c2)n1` [Example 41, N-(3-((5-chloro-2-((2-methoxy-4-(4-methylpiperazin-1-yl)phenyl)amino)pyrimidin-4-yl)amino)phenyl)-1,2-dithiolane-4-carboxamide], 0.001 to 0.099 µM.
